Results as given in article PMC12596218 (Journal of Lipid Research, 2025).
Values joined by “and” are separate entries in the source; they are usually repeats but may differ in a detail not shown here. Identical values can stand only once.

Assays:
[1] = molecular target: T1, NTCP (Homo sapiens, UniProt Q14973); assay: [3H]TC transport and inhibition assay in NTCP-HEK293 cells; type: cell-based; details: 1 μM [3H]TC; for NTCP inhibition (in words): inhibitor up to 100 μM; for IC50: 10 min, NTCP-HEK293, two independent experiments
T1 construct: stably transfected with the full open reading frames of human NTCP, ASBT, SOAT, OATP1B1, OATP1B3, OATP2B1, and murine Asbt (mAsbt); expressed in transfected cells; host or cells: HEK293 (Flp-In), stably transfected, tetracycline-induced
T1 sequence (Q14973 1-349): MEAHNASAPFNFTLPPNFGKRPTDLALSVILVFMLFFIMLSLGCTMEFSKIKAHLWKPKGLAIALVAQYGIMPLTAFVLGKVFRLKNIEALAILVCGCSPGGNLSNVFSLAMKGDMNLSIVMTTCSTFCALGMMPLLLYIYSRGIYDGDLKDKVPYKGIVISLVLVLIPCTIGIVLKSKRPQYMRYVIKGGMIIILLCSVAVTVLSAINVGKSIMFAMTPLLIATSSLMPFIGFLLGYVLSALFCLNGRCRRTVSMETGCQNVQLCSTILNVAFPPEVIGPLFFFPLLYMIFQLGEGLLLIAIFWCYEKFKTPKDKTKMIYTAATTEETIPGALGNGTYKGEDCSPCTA
Description: (§1) Human embryonic kidney HEK293 cells, stably transfected with the full open reading frames of human NTCP, ASBT, SOAT, OATP1B1, OATP1B3, OATP2B1, and murine Asbt (mAsbt) were used as reported ([18], [20], [21], [22], [23]). The NTCP, ASBT, and mAsbt constructs were C-terminally tagged with the FLAG epitope, and the SOAT construct was C-terminally tagged with green fluorescent protein. Non-transfected Flp-In HEK293 cells (Thermo Fisher Scientific) served as the control. All cell lines were maintained at 37°C, 5% CO2 and 95% humidity in DMEM/F-12 medium (Thermo Fisher Scientific) supplemented with 10% fetal calf serum (Sigma-Aldrich), 4 mM L-glutamine (PAA) and penicillin/streptomycin (PAA). Expression of the respective carrier protein was induced by tetracycline treatment at 1 μg/ml (Carl Roth GmbH + Co. KG).
(§2) Cells were seeded onto poly-L-lysine-coated 96-well plates, induced with 1 μg/ml tetracycline, and grown to confluence over 72 h at 37°C. Then, cells were washed with tempered (37°C) phosphate-buffered saline (PBS, containing 137.0 mM NaCl, 2.7 mM KCl, 1.5 mM KH2PO4, and 7.3 mM Na2HPO4, at pH 7.4) and preincubated with 80 μl sodium transport buffer (STB, containing 142.9 mM NaCl, 4.7 mM KCl, 1.2 mM MgSO4, 1.2 mM KH2PO4, 1.8 mM CaCl2, and 20.0 mM HEPES, at pH 7.4) for 5 min at 37°C. For inhibition studies, the medium was replaced by 80 μl STB containing the respective inhibitor or solvent alone and cells were further incubated for 5 min at 37°C. Transport experiments were started by adding 20 μl of a 5-fold concentrated substrate solution (solved in STB). For transport experiments under sodium-free conditions the same buffer composition was used as for STB, but sodium chloride was substituted with equimolar concentrations of choline chloride as previously reported ([20], [24]). Transport experiments were stopped by washing twice with ice-cold PBS and the plates were kept cool on ice until adding the lysis buffer [1% sodium dodecyl sulfate (SDS) and 1 N NaOH]. Then, the cell-associated radioactivity of the respective tritium-labeled substrate or ligand was quantified by liquid scintillation counting using MicroScint-20 scintillation cocktail (Revvity) in a Packard Microplate Scintillation Counter TopCount NXT (Packard Instrument Company). For IC50 transport inhibition measurements, the mean uptake values measured in non-carrier-expressing HEK293 control cells were defined as 0% uptake control and were subtracted from all other values. Values from cells without inhibitor and solvent alone were set to 100%. Finally, all net transport data were expressed as uptake or binding as % of control. All transport or inhibition graphs were generated with GraphPad Prism 6 (GraphPad). Determination of half maximal inhibitory concentrations (IC50) was done by nonlinear regression analysis using the equation log (inhibitor) versus response—variable slope settings. All data points of the IC50 curves represent means ± SD of quadruplicate determinations. For Km measurements, BS uptake in the absence of sodium was regarded as carrier-independent unspecific uptake and was subtracted from the transport rates in the presence of sodium to obtain carrier-specific uptake rates (indicated as dashed lines). From the specific uptake rates, Michaelis Menten Km values were calculated by non-linear regression analysis.

[2] = molecular target: T2, SOAT (Homo sapiens, UniProt Q3KNW5); assay: [3H]DHEAS transport inhibition assay in SOAT-HEK293 cells; type: cell-based; details: 1 μM [3H]DHEAS; for IC50: 10 min, SOAT-HEK293, two independent experiments
T2 construct: stably transfected with the full open reading frames of human NTCP, ASBT, SOAT, OATP1B1, OATP1B3, OATP2B1, and murine Asbt (mAsbt); expressed in transfected cells; host or cells: HEK293 (Flp-In), stably transfected, tetracycline-induced
T2 sequence (Q3KNW5 1-377): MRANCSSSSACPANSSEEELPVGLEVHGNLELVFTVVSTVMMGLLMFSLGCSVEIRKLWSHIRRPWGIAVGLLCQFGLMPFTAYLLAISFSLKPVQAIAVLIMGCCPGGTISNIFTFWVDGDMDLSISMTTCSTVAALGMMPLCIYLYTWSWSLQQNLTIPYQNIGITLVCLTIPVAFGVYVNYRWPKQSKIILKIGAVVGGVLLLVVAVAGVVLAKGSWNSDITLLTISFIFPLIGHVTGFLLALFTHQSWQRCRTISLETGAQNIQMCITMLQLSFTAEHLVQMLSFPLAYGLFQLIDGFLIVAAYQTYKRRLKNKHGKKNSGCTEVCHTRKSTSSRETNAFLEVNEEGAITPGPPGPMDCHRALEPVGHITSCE
Description: as §1, §2

Row | NTCP inhibition (in words) [1] | IC50 [2] | IC50 [1] | SOAT inhibition (in words) ([2]; inhibitor up to 100 μM) | SMILES
1 | no significant NTCP inhibition | 8.6 µM and 13.5 µM | – | – | CCCCC1(CCCC)CS(=O)(=O)c2ccc(N(C)C)cc2[C@@H](c2ccc(OCCCC[N+]34CCN(CC3)CC4)cc2)[C@H]1O [SC-435]
2 | – | 3.2 µM and 3.3 µM | 36.3 µM and 66.1 µM | – | CCCCC1(CCCC)CN(c2ccccc2)c2cc(SC)c(OCC(=O)N[C@@H](C(=O)NCC(=O)O)c3ccccc3)cc2S(=O)(=O)C1 [elobixibat]
3 | no significant NTCP inhibition | – | – | failed to significantly inhibit SOAT | CCCC[C@]1(CC)CS(=O)(=O)c2cc(CNC(CC(=O)O)CC(=O)O)c(OC)cc2[C@@H](c2ccccc2)N1 [linerixibat]
4 | – | 4.5 µM and 5.9 µM | 91.5 µM and 98.5 µM | – | CCCCC1(CCCC)CS(=O)(=O)c2ccc(N(C)C)cc2[C@@H](c2ccc(OCc3ccc(C[N+]45CCN(CC4)CC5)cc3)cc2)[C@H]1O [maralixibat]
5 | – | 5.5 µM and 5.6 µM | 9.9 µM and 17 µM | – | CCCCC1(CCCC)CN(c2ccccc2)c2cc(SC)c(OCC(=O)N[C@@H](C(=O)N[C@@H](CC)C(=O)O)c3ccc(O)cc3)cc2S(=O)(=O)N1 [odevixibat]
